According to US9868737B2, “Pyridino[1,2-A]pyrimidone analogue used as MTOR/P13K inhibitor” (CISEN PHARMACEUTICAL CO., LTD., priority 2014, dated 2018):
pIC50: −log10 of the molar value.

Tests used:
[1] = test system: MCF-7 cells; assay: In vitro test of cell activity (MCF-7 cells, insulin stimulation, ELISA-One fluorescence); type: cell-based; settings: Homo sapiens, MCF7, MCF-7 cells; read-out: IC50 p-AKT
Summary of the method: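 MCF-7 cells, seeded at 2.5×10^4/well in 10% FBS medium, were given compound in serum-free medium for 2 h at one concentration (screen) or a series (IC50). Insulin stimulation followed at […] final for 30 min; lysates assayed by ELISA-One sandwich immunoassay with fluorescence read-out.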

[2] = target: T1, PI3K (p110α) kinase (Homo sapiens, UniProt P42336); assay: PI3K (p110α) kinase assay (PI3K HTRF Assay); type: biochemical; settings: in vitro enzyme activity assay, 10 μM PIP2, read-out: PI3K (p110α) enzyme activity_IC50
T1 construct: made in house
T1 sequence (P42336 whole entry): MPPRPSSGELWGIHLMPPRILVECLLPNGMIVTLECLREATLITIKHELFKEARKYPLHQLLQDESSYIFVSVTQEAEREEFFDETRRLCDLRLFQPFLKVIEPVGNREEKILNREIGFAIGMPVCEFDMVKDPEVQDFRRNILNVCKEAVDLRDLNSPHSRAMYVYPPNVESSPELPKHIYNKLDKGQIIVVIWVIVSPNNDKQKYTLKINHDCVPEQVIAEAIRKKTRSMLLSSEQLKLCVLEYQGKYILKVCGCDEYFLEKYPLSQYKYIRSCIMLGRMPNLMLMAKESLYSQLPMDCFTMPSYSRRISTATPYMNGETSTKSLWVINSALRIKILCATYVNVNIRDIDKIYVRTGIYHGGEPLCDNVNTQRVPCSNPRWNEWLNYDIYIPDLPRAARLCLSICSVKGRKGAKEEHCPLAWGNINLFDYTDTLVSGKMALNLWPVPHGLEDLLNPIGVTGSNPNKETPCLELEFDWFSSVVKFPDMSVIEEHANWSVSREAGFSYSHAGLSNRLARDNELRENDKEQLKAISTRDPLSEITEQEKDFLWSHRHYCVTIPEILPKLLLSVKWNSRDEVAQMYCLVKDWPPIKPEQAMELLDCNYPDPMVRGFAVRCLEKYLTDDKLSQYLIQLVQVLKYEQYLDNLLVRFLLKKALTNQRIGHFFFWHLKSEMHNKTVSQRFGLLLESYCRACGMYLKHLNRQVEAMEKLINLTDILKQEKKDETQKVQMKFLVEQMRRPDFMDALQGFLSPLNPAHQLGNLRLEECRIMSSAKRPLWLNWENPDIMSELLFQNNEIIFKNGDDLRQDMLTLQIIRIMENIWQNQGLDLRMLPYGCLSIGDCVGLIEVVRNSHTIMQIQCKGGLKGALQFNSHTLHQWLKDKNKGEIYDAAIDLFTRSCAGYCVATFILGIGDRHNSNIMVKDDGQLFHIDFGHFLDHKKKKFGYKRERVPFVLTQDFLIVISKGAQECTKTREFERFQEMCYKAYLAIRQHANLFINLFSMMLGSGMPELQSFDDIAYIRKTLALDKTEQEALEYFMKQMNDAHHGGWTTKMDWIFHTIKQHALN
From the text: Conclusion: The compounds of the present invention have significant inhibitory effect on mTOR/PI3K. Example In Vitro Enzyme Activity Assay 1. The experimental procedures and methods of PI3K (p110α) kinase assay: 1) Experimental Objective
The objective was to evaluate the inhibitory effect of the subject samples on PI3K (p110α) kinase activity at molecular level.
PerkinElmer Envision 2104 Multilabel Reader.
PI 3-Kinase HTRF Assay (384 wells) was purchased from Upstate (Millipore) company: PI3K (p110α) kinase was made in our lab.
c) Experimental procedures
Each solution was prepared according to the instructions provided in the Kinase PI 3-Kinase HTRF Assay. The kinase reaction was carried out in white 384-well plates (Proxiplate-384 plus), 0.5 μl of DMSO (the concentration was consistent with the highest concentration of DMSO for the test compounds) was added to each of the two control wells with and without enzyme, and then 0.5 μl of a series of different concentrations of the test compounds was added to each well to be tested. The kinase reaction liquid (10 μM substrate PIP2, 0.5 ng PI3K (p110α)) was added to the control well containing enzyme and the test wells, while only working reaction liquid (10 μM substrate PIP2) was added to the control well without enzyme, and finally, 5 μM ATP working reaction liquid was added to activate the reaction. After the reaction was carried out at room temperature for 30 min, the stop solution was added to each well to terminate the kinase reaction. After the mixture was fully mixed, the detection liquid was added to each well and fully mixed. The plate was sealed with Parafilm and placed in the dark. After incubated overnight, the mixture was detected.
The IC50 value was calculated through the GraphPad software after plotting the relative inhibitory rate versus concentration.

| pIC50 [1] | pIC50 [2] | Structure (SMILES) |
| --- | --- | --- |
| 6.60 to 7.00 | ≥ 9.00 | COCCOc1cnc2ccc(-c3cnc(OC)c(NS(=O)(=O)c4c(F)cccc4F)c3)cn2c1=O [compound 265] |
| – | 8.00 to 9.00 | COCCOc1cnc2ccc(-c3cnc(OC)c(NS(=O)(=O)n4nc(C)cc4C)c3)cn2c1=O [compound 283] |
| 6.60 to 7.00 | ≥ 9.00 | COc1ncc(-c2ccc3ncc(OCC4COC4)c(=O)n3c2)cc1NS(=O)(=O)c1ccc(C)cc1C [compound 251] |
| 7.00 to 7.30 | ≥ 9.00 | COCCOc1cnc2ccc(-c3cnc(OC)c(NS(=O)(=O)c4ccc(C)cc4C)c3)cn2c1=O [compound 244] |
| 6.60 to 7.00 | 8.00 to 9.00 | COCCOc1cnc2ccc(-c3cnc(OC)c(NS(=O)(=O)c4c(C)cc(C)cc4C)c3)cn2c1=O [compound 268] |
| 6.60 to 7.00 | ≥ 9.00 | COCCOc1cnc2ccc(-c3cnc(OC)c(NS(=O)(=O)c4cc(F)ccc4C)c3)cn2c1=O [compound 260] |
| ≥ 7.30 | ≥ 9.00 | COCCOc1cnc2ccc(-c3cnc(OC)c(NS(=O)(=O)c4ccc(C)cc4Cl)c3)cn2c1=O [compound 275] |
| 7.00 to 7.30 | ≥ 9.00 | COCCOc1cnc2ccc(-c3cnc(OC)c(NS(=O)(=O)c4cccc(Cl)c4C)c3)cn2c1=O [compound 261] |
| – | 8.00 to 9.00 | COCCOc1cnc2ccc(-c3cnc(OC)c(NS(=O)(=O)c4cc(C)c(Cl)cc4Cl)c3)cn2c1=O [compound 258] |
| 6.60 to 7.00 | ≥ 9.00 | COc1ncc(-c2ccc3ncc(OCCOCC(F)(F)F)c(=O)n3c2)cc1NS(=O)(=O)c1ccc(F)cc1Cl [compound 242] |
| ≥ 7.30 | ≥ 9.00 | COc1ncc(-c2ccc3ncc(OCC4COC4)c(=O)n3c2)cc1NS(=O)(=O)c1c(Cl)cccc1Cl [compound 249] |
| ≥ 7.30 | ≥ 9.00 | COCCOc1cnc2ccc(-c3cnc(OC)c(NS(=O)(=O)c4ccccc4Cl)c3)cn2c1=O [compound 253] |
| < 6.60 | 8.00 to 9.00 | COCCOc1cnc2ccc(-c3cnc(OC)c(NS(=O)(=O)c4ccc(F)cc4C)c3)cn2c1=O [compound 252] |
| 7.00 to 7.30 | ≥ 9.00 | COCCOc1cnc2ccc(-c3cnc(OC)c(NS(=O)(=O)c4ccc(Cl)cc4F)c3)cn2c1=O [compound 271] |
| ≥ 7.30 | ≥ 9.00 | COCCOc1cnc2ccc(-c3cnc(OC)c(NS(=O)(=O)c4c(Cl)cccc4Cl)c3)cn2c1=O [compound 245] |
| 7.00 to 7.30 | ≥ 9.00 | COc1ncc(-c2ccc3ncc(OCC4COC4)c(=O)n3c2)cc1NS(=O)(=O)c1ccc(F)c(F)c1 [compound 250] |
| 7.00 to 7.30 | ≥ 9.00 | COCCOc1cnc2ccc(-c3cnc(OC)c(NS(=O)(=O)c4cc(C)ccc4C)c3)cn2c1=O [compound 262] |
| – | 8.00 to 9.00 | COCCOc1cnc2ccc(-c3cnc(OC)c(NS(=O)(=O)c4ccc(F)cc4C4CC4)c3)cn2c1=O [compound 284] |
| 7.00 to 7.30 | ≥ 9.00 | COCCOc1cnc2ccc(-c3cnc(OC)c(NS(=O)(=O)c4ccc(Cl)cc4Cl)c3)cn2c1=O [compound 263] |
| 6.60 to 7.00 | ≥ 9.00 | COCCOc1cnc2ccc(-c3cnc(OC)c(NS(=O)(=O)c4cccc(C)c4)c3)cn2c1=O [compound 247] |
| ≥ 7.30 | ≥ 9.00 | COc1ncc(-c2ccc3ncc(OCCCF)c(=O)n3c2)cc1NS(=O)(=O)c1ccc(F)cc1Cl [compound 243] |
| – | 8.00 to 9.00 | COCCOc1cnc2ccc(-c3cnc(OC)c(NS(=O)(=O)c4cc(C)c(Cl)cc4F)c3)cn2c1=O [compound 269] |
| 6.60 to 7.00 | ≥ 9.00 | COCCOc1cnc2ccc(-c3cnc(OC)c(NS(=O)(=O)c4ccc(F)c(F)c4)c3)cn2c1=O [compound 246] |
| ≥ 7.30 | ≥ 9.00 | COc1ncc(-c2ccc3ncc(OCC4COC4)c(=O)n3c2)cc1NS(=O)(=O)c1ccc(C)cc1Cl [compound 277] |
| – | ≥ 9.00 | COCCOc1cnc2ccc(-c3cnc(OC)c(NS(=O)(=O)c4cnc(C)cc4C)c3)cn2c1=O [compound 282] |
